Patent US20250129104A1, “7H-PYRROLO[2,3-D]PYRIMIDINES AND PREPARATION AND USES THEREOF” (BioSplice Therapeutics, Inc., priority 2021, published 2025)

Assays:
[1] = target: recombinant DYRK1A kinase (Homo sapiens (Human), UniProt Q13627); experiment: DYRK1A kinase assay (Ser/Thr 18 peptide Z-lyte FRET assay); assay type: biochemical; details: DYRK1A kinase activity; 15 μM ATP, 1 h room temperature; method text calls the value IC50
Summary of the method: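 FRET Z-lyte read-out (coumarin/fluorescein ratio, % phosphorylation) after 1 h development; IC50 from non-linear curve fit. Reaction: 0.25 μg/mL recombinant human DYRK1A, Ser/Thr 18 peptide 4 μM, ATP 15 μM, compound in 11-point 1:3 series from 10 μM, 1 h, room temperature, duplicate wells.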

[2] = tested on: Tau phosphorylation at Thr212 (pThr212); experiment: tau phosphorylation assay: phosphoTau (Thr212) AlphaLISA in HEK293T cells transfected with DYRK1A and MAPT; assay type: cell-based; details: HEK-293T; HEK293T cells transfected with human DYRK1A and MAPT; 18-24 h compound treatment; read-out: pTau (Thr212) EC50
Experimental: Representative compounds were screened using the assay procedure for tau phosphorylation activity described below.
HEK293T cells (ATCC, CRL3216) cultured in DMEM (Thermo Fisher Scientific, 10566024) supplemented with 10% FBS (Corning, 35-011-CV) and Penicillin/Streptomycin (Thermo Fisher Scientific, 15140163) were seeded in a 75 cm^2 flask at 8.1×10^6 cells/flask. The HEK293T cells were then transiently transfected with 5 μg DYRK1A (NM_001396) human untagged clone (OriGene, SC314641) and 2.5 μg MAPT (441 a.a. Tau gene) (NM_005910) human untagged clone (OriGene, TP313312) using Lipofectamine 3000 (Thermo Fisher Scientific, L30000015) and incubated for 20-30 hours in a humidified incubator at 37° C. and 5% CO2. Post-incubation, HEK293T cells transfected with the DYRK1A and MAPT expression vectors were harvested and seeded in BioCoat poly-D lysine coated 96-well plates (Corning, 354461) at 3×10^4 cells/well.
The above synthesized compounds were screened using the cell assay procedure to assess decreased Tau phosphorylation at Thr212 (pThr212) described below.
Each compound was dissolved in DMSO (Sigma-Aldrich, D8418-100 mL) as a 10 mM stock. 10 mM stocks were serially diluted 1:3, 10-point dose-response curve and added to the cells with a final concentration ranging from 20 μM to 1.1 nM. Cell were treated with compounds in duplicate and incubated for 18-24 hours in a humidified incubator at 37° C. and 5% CO2.
Following the overnight compound treatment, cells were lysed with 1× Alpha Surefire Ultra Lysis Buffer (Perkin Elmer, ALSU-LB-100ML) complemented with 1× Halt Phosphatase Inhibitor Cocktail (Thermo Fisher Scientific, 78427) and 1× Halt Protease Inhibitor Cocktail (Thermo Fisher Scientific, 78438). Lysates were spun down at 12,000 g for 10 min to remove any cellular debris and 5 μL of lysates were dispensed into a 384-well Opti-Plate (Perkin Elmer, 6007290) for the measurement of Tau phosphorylation in the phosphoTau (Thr212) AlphaLISA assay. Donor antibody, biotinylated HT7Tau (Thermo Fisher Scientific, MN1000B), and acceptor antibody, pThr212Tau (Thermo Fisher Scientific, 44740G) were both added to the cell lysates at a final concentration of 3 nM and incubated for 1 hour at room temperature. Following incubation of the lysates with the donor and acceptor antibodies, anti-rabbit IgG (Fc specific) AlphaLISA acceptor beads (Perkin Elmer, AL104C) were added at a 10 μg/mL final concentration and incubated for 1 hour at room temperature protected from light. Lastly, AlphaScreen streptavidin donor beads (PerkinElmer, 6760002) were added at 40 μg/mL final concentration and incubated for 1 hour at room temperature protected from light. Plates were read at […], and Em=615 nm on the EnVision Multilabel Plate Reader (Perkin Elmer). PhosphoTau (Thr212) AlphaLISA signal was used to plot, draw the curve fitting, and determine each compound's EC50 in Prism (GraphPad).

Row | SMILES | EC50 [1] | EC50 [2]
1 | Cc1nc2c(F)cc(-c3c[nH]c4nc(NCC(C)(C)C)ncc34)cc2n1C(C)C [Compound 507, 5-(4-Fluoro-1-isopropyl-2-methyl-1H-benzo[d]imidazol-6-yl)-N-neopentyl-7H-pyrrolo[2,3-d]pyrimidin-2-amine] | 7.2 nM | 37 nM
2 | CC(C)(F)CNc1ncc2c(-c3ccc4ncc(F)n4c3)c[nH]c2n1 [Compound 155, N-(2-Fluoro-2-methylpropyl)-5-(3-fluoroimidazo[1,2-a]pyridin-6-yl)-7H-pyrrolo[2,3-d]pyrimidin-2-amine] | 11.7 nM | 227 nM
3 | C[C@@H](Nc1ncc2c(-c3cc(F)c4nccn4c3)c[nH]c2n1)C(F)(F)F [Compound 202, (R)-5-(8-Fluoroimidazo[1,2-a]pyridin-6-yl)-N-(1,1,1-trifluoropropan-2-yl)-7H-pyrrolo[2,3-d]pyrimidin-2-amine] | 6 nM | 76 nM
4 | Cc1nc2ccc(-c3c[nH]c4nc(NCC(C)(C)F)ncc34)cc2s1 [Compound 24, N-(2-Fluoro-2-methylpropyl)-5-(2-methylbenzo[d]thiazol-6-yl)-7H-pyrrolo [2,3-d]pyrimidin-2-amine] | 14.5 nM | 360 nM
5 | CC[C@H](C)Nc1ncc2c(-c3cc(F)c4nccn4c3)c[nH]c2n1 [Compound 198, (S)—N-(sec-Butyl)-5-(8-fluoroimidazo[1,2-a]pyridin-6-yl)-7H-pyrrolo[2,3-d]pyrimidin-2-amine] | 19.5 nM | 351 nM
6 | Cc1cnc2c(F)cc(-c3c[nH]c4nc(NC5CCC(F)(F)CC5)ncc34)cn12 [Compound 301, N-(4,4-Difluorocyclohexyl)-5-(8-fluoro-3-methylimidazo[1,2-a]pyridin-6-yl)-7H-pyrrolo[2,3-d]pyrimidin-2-amine] | 6.6 nM | 66 nM
7 | C[C@@H](Nc1ncc2c(-c3cnc4nccn4c3)c[nH]c2n1)C1CC1 [Compound 469, (R)—N-(1-cyclopropylethyl)-5-(imidazo[1,2-a]pyrimidin-6-yl)-7H-pyrrolo [2,3-d]pyrimidin-2-amine] | 7.6 nM | 246 nM
8 | CC(C)Cc1ncc2c(-c3cnc4nccn4c3)c[nH]c2n1 [Compound 448, 5-(Imidazo[1,2-a]pyrimidin-6-yl)-2-isobutyl-7H-pyrrolo[2,3-d]pyrimidine] | 9.3 nM | 245 nM
9 | Fc1cc(-c2c[nH]c3nc(C4CC4)ncc23)cn2ccnc12 [Compound 189, 2-Cyclopropyl-5-(8-fluoroimidazo[1,2-a]pyridin-6-yl)-7H-pyrrolo[2,3-d]pyrimidine] | 24.2 nM | 1660 nM
10 | C[C@H](Nc1ncc2c(-c3ccc4nccn4c3)c[nH]c2n1)C(F)(F)F [Compound 116, (S)-5-(Imidazo[1,2-a]pyridin-6-yl)-N-(1,1,1-trifluoropropan-2-yl)-7H-pyrrolo [2,3-d]pyrimidin-2-amine] | 9.6 nM | 117 nM
11 | Cc1cnc2c(F)cc(-c3c[nH]c4nc(C5CC5)ncc34)cn12 [Compound 276, 2-Cyclopropyl-5-(8-fluoro-3-methylimidazo[1,2-a]pyridin-6-yl)-7H-pyrrolo [2,3-d]pyrimidine] | 28.4 nM | 657 nM
12 | Cc1nc2ccc(-c3c[nH]c4nc(N[C@H](C)C(F)(F)F)ncc34)nc2n1CC(F)F [Compound 646, (R)-5-(3-(2,2-Difluoroethyl)-2-methyl-3H-imidazo[4,5-b]pyridin-5-yl)-N-(1,1,1-trifluoropropan-2-yl)-7H-pyrrolo[2,3-d]pyrimidin-2-amine] | 5.6 nM | 6 nM
13 | COc1nc(CC(C)C)nc2[nH]cc(-c3cc(F)c4nc(C)n(C(C)C)c4c3)c12 [Compound 497, 5-(4-Fluoro-1-isopropyl-2-methyl-1H-benzo[d]imidazol-6-yl)-2-isobutyl-4-methoxy-7H-pyrrolo[2,3-d]pyrimidine] | 9.2 nM | 433 nM
14 | FC(F)(F)CCc1ncc2c(-c3cnc4nccn4c3)c[nH]c2n1 [Compound 449, 5-(Imidazo[1,2-a]pyrimidin-6-yl)-2-(3,3,3-trifluoropropyl)-7H-pyrrolo[2,3-d]pyrimidine] | 9.4 nM | 497 nM

More lines, now with the values ahead:

Row | EC50 [1] | EC50 [2] | SMILES
15 | 13.4 nM | 103 nM | FC1(CNc2ncc3c(-c4ccn5nccc5n4)c[nH]c3n2)CCC1 [Compound 1662, N-((1-Fluorocyclobutyl)methyl)-5-(pyrazolo[1,5-a]pyrimidin-5-yl)-7H-pyrrolo[2,3-d]pyrimidin-2-amine]
16 | 18.7 nM | 335 nM | C[C@@H](Nc1ncc2c(-c3ccc4ncnn4c3)c[nH]c2n1)C(F)(F)F [Compound 734, (R)-5-([1,2,4]Triazolo[1,5-a]pyridin-6-yl)-N-(1,1,1-trifluoropropan-2-yl)-7H-pyrrolo[2,3-d]pyrimidin-2-amine]
17 | 6.9 nM | 78 nM | CC(C)CNc1ncc2c(-c3ccc4ncnn4c3)c[nH]c2n1 [Compound 727, 5-([1,2,4]Triazolo[1,5-a]pyridin-6-yl)-N-isobutyl-7H-pyrrolo[2,3-d]pyrimidin-2-amine]
18 | 3.7 nM | 4 nM | CO[C@H]1CC[C@@H](Nc2ncc3c(-c4ccn5nccc5c4)c[nH]c3n2)CC1 [Compound 1143, N-(cis-4-Methoxycyclohexyl)-5-(pyrazolo[1,5-a]pyridin-5-yl)-7H-pyrrolo [2,3-d]pyrimidin-2-amine]
19 | 5.8 nM | 34 nM | CN1CCC(NC(=O)c2cnn3ccc(-c4c[nH]c5nc(NCC(C)(C)C)ncc45)cc23)CC1 [Compound 1516, N-(1-Methylpiperidin-4-yl)-5-(2-(neopentylamino)-7H-pyrrolo[2,3-d]pyrimidin-5-yl)pyrazolo[1,5-a]pyridine-3-carboxamide]
20 | 26.9 nM | 67 nM | CN1CCC(Nc2ncc3c(-c4ccc5ncnn5c4)c[nH]c3n2)CC1 [Compound 750, 5-([1,2,4]Triazolo[1,5-a]pyridin-6-yl)-N-(1-methylpiperidin-4-yl)-7H-pyrrolo [2,3-d]pyrimidin-2-amine]
21 | 33.6 nM | 504 nM | FC(F)CNc1ncc2c(-c3ccc4ncnn4c3)c[nH]c2n1 [Compound 730, 5-([1,2,4]Triazolo[1,5-a]pyridin-6-yl)-N-(2,2-difluoroethyl)-7H-pyrrolo[2,3-d]pyrimidin-2-amine]
22 | 3.9 nM | 152 nM | CC(C)(F)CNc1ncc2c(-c3ccn4nccc4n3)c[nH]c2n1 [Compound 1648, N-(2-Fluoro-2-methylpropyl)-5-(pyrazolo[1,5-a]pyrimidin-5-yl)-7H-pyrrolo [2,3-d]pyrimidin-2-amine]
23 | 2.6 nM | 604 nM | O=C(NC1CC(F)(F)C1)c1cnn2ccc(-c3c[nH]c4nc(C5CC5)ncc34)cc12 [Compound 1378, 5-(2-Cyclopropyl-7H-pyrrolo[2,3-d]pyrimidin-5-yl)-N-(3,3-difluorocyclobutyl)pyrazolo[1,5-a]pyridine-3-carboxamide]
24 | 6 nM | 56 nM | CO[C@H]1CC[C@@H](Nc2ncc3c(-c4ccn5nccc5n4)c[nH]c3n2)CC1 [Compound 1664, N-(cis-4-Methoxycyclohexyl)-5-(pyrazolo[1,5-a]pyrimidin-5-yl)-7H-pyrrolo[2,3-d]pyrimidin-2-amine]
25 | 5.1 nM | 90 nM | FC1(CNc2ncc3c(-c4ccc5ncnn5c4)c[nH]c3n2)CCC1 [Compound 745, 5-([1,2,4]Triazolo[1,5-a]pyridin-6-yl)-N-((1-fluorocyclobutyl)methyl)-7H-pyrrolo[2,3-d]pyrimidin-2-amine]
